From US8785655B2, “Ionic liquid solvents” (Dublin City University, priority 2009, dated 2014)

Key:
Escherichia coli CCM4517 = experiment: Screen against bacteria, MIC/IC80; assay type: cell-based; details: EC
[1] = tested on: Candida lusitaniae 2446/l; experiment: In vitro antifungal activity, MIC by microdilution (NCCLS M27-A); details: CL
Method: (§1) In vitro antifungal activities of the compounds were evaluated on the collection of fungal strains deposited at the Department of Biological and Medical Sciences, Faculty of Pharmacy, Charles University, Czech Republic. All the isolates were maintained on Sabouraud dextrose agar prior to being tested.
(§2) Minimum inhibitory concentrations (MICs) were determined by the microdilution format of the NCCLS M27-A guidelines. […] RPMI 1640 (Sevapharma, Prague) medium supplemented with L-glutamine and buffered with 0.165 M morpholinepropanesulfonic acid to pH 7.0 was used as the test medium. The wells of the microdilution tray contained 100 μl of the RPMI 1640 medium with 2-fold serial dilutions of the compounds (1000 to 0.24 μmol/l for the new compounds) and 100 μl of inoculum suspension. Fungal inoculum in RPMI 1640 was prepared to give a final concentration of 5×103±0.2 cfu·ml-1. The trays were incubated at 35° C. and MICs were read visually for filamentous fungi and photometrically for yeasts as an optical density (OD) at 540 nm after 24 h and 48 h. The MICs were defined as 80% inhibition of the growth of control. MICs were determined twice and in duplicate. The deviations from the usually obtained were no higher than the nearest concentration value up and down the dilution scale.

Absidia corymbifera 272 = experiment: as above; details: AC
Method: as §1, §2

Candida tropicalis 156 = experiment: as above; details: CT
[2] = tested on: Candida albicans ATCC 44859; experiment: as above
[3] = tested on: Staphylococcus aureus CCM 4516/08; experiment: Screen against bacteria, MIC/IC80; assay type: cell-based; details: SA
Candida krusei E28 = experiment: In vitro antifungal activity, MIC by microdilution (NCCLS M27-A)
Candida krusei ATCC 6258 = experiment: as above
Method: as §1, §2

[4] = tested on: Staphylococcus aureus H 5996/08 Methiciline-resistant; experiment: Screen against bacteria, MIC/IC80; assay type: cell-based; details: MRSA
[5] = tested on: Staphylococcus epidermidis H 6966/08; experiment: Screen against bacteria, MIC/IC80; assay type: cell-based; details: SE
Candida glabrata 20/l = experiment: In vitro antifungal activity, MIC by microdilution (NCCLS M27-A); details: CG
Method: as §1, §2

[6] = tested on: Aspergillus fumigatus 231; experiment: as above; details: AF
[7] = tested on: Pseudomonas aeruginosa CCM 1961; experiment: Screen against bacteria, MIC/IC80; assay type: cell-based; details: PA
[8] = tested on: Enterococcus sp. J 14365/08; experiment: Screen against bacteria, MIC/IC80; assay type: cell-based; details: EF
[9] = tested on: Candida parapsilosis ATCC 22019; experiment: In vitro antifungal activity, MIC by microdilution (NCCLS M27-A); details: CP
[10] = tested on: Klebsiella pneumoniae J 14368/08 ESBL-positive; experiment: Screen against bacteria, MIC/IC80; assay type: cell-based; details: KP-E
[11] = tested on: Candida albicans ATCC 90028; experiment: In vitro antifungal activity, MIC by microdilution (NCCLS M27-A)
[12] = tested on: Trichophyton mentagrophytes 445; experiment: as above; details: TM
[13] = tested on: Klebsiella pneumoniae D 11750/08; experiment: Screen against bacteria, MIC/IC80; assay type: cell-based; details: KP

Measured: MIC/IC80

CCOCCOC(=O)[C@@H](OC(=O)Cn1cc[n+](C)c1)c1ccccc1.[Br-] [KG826, S-3-methyl-1-[1-(ethoxyethoxycarbonyl)-1-phenylmethoxycarbonylmethyl]imidazolium bromide]
>1000 µM: Escherichia coli CCM4517; 24 h | Escherichia coli CCM4517; 48 h | [1]; 24 h | [1]; 48 h | Absidia corymbifera 272; 24 h | Absidia corymbifera 272; 48 h | Candida tropicalis 156; 24 h | Candida tropicalis 156; 48 h | [2]; CA1, 24 h | [2]; CA1, 48 h | [3]; 24 h | [3]; 48 h | Candida krusei E28; CK2, 24 h | Candida krusei E28; CK2, 48 h | Candida krusei ATCC 6258; CK1, 24 h | Candida krusei ATCC 6258; CK1, 48 h | [4]; 24 h | [4]; 48 h | [5]; 24 h | [5]; 48 h | Candida glabrata 20/l; 24 h | Candida glabrata 20/l; 48 h | [6]; 24 h | [6]; 48 h | [7]; 24 h | [7]; 48 h | [8]; 24 h | [8]; 48 h | [9]; 24 h | [9]; 48 h | [10]; 24 h | [10]; 48 h | [11]; CA2, 24 h | [11]; CA2, 48 h | [12]; 72 h | [12]; 120 h | [13]; 24 h | [13]; 48 h

R-3-methyl-1-[1-(pentoxycarbonyl)-1-methylmethoxycarbonylmethyl]imidazolium octyl sulphate [KG171]
>1000 µM: Escherichia coli CCM4517; 24 h | Escherichia coli CCM4517; 48 h | [1]; 24 h | [1]; 48 h | Absidia corymbifera 272; 24 h | Absidia corymbifera 272; 48 h | Candida tropicalis 156; 24 h | Candida tropicalis 156; 48 h | [2]; CA1, 24 h | [2]; CA1, 48 h | [3]; 24 h | [3]; 48 h | Candida krusei E28; CK2, 24 h | Candida krusei E28; CK2, 48 h | Candida krusei ATCC 6258; CK1, 24 h | Candida krusei ATCC 6258; CK1, 48 h | [4]; 24 h | [4]; 48 h | [5]; 24 h | [5]; 48 h | Candida glabrata 20/l; 24 h | Candida glabrata 20/l; 48 h | [6]; 24 h | [6]; 48 h | [7]; 24 h | [7]; 48 h | [8]; 24 h | [8]; 48 h | [9]; 24 h | [9]; 48 h | [10]; 24 h | [10]; 48 h | [11]; CA2, 24 h | [11]; CA2, 48 h | [12]; 72 h | [12]; 120 h | [13]; 24 h | [13]; 48 h

COC(=O)[C@H](OC(=O)C[n+]1ccn(C)c1)c1ccccc1 [KG90, R-3-methyl-1-[1-(methoxycarbonyl)-1-phenylmethoxycarbonylmethyl]imidazolium bromide]
>1000 µM: Escherichia coli CCM4517; 24 h | Escherichia coli CCM4517; 48 h | [1]; 24 h | [1]; 48 h | Absidia corymbifera 272; 24 h | Absidia corymbifera 272; 48 h | Candida tropicalis 156; 24 h | Candida tropicalis 156; 48 h | [2]; CA1, 24 h | [2]; CA1, 48 h | [3]; 24 h | [3]; 48 h | Candida krusei E28; CK2, 24 h | Candida krusei E28; CK2, 48 h | Candida krusei ATCC 6258; CK1, 24 h | Candida krusei ATCC 6258; CK1, 48 h | [4]; 24 h | [4]; 48 h | [5]; 24 h | [5]; 48 h | Candida glabrata 20/l; 24 h | Candida glabrata 20/l; 48 h | [6]; 24 h | [6]; 48 h | [7]; 24 h | [7]; 48 h | [8]; 24 h | [8]; 48 h | [9]; 24 h | [9]; 48 h | [10]; 24 h | [10]; 48 h | [11]; CA2, 24 h | [11]; CA2, 48 h | [12]; 72 h | [12]; 120 h | [13]; 24 h | [13]; 48 h
